Data reported in the supplement of paper PMC10307832.

How the values were obtained:
Test in all cases: relative viability (nuclei count vs DMSO), 5 days (fraction); higher = more cells survive
EKVX = tested on: EKVX
In short: (§1)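 For relative viability, nuclei counts in treated wells were divided by those in vehicle wells. Lung cancer cell lines had been pin-tool dosed in 1536-well plates the day after seeding and cultured for 5 days, then fixed and stained in one step (final 0.05% Triton X-100, 1% formaldehyde, 1 ug/ml Hoechst) and imaged at 4×. Doses were one drug alone or a fixed anchor-drug dose plus five library-drug doses (not always all listed) in √10 steps, and values are duplicate-plate medians.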

EMC-BAC-2 = tested on: EMC-BAC-2
In short: as §1

EPLC-272H = tested on: EPLC-272H
In short: as §1

HCC-78 = tested on: HCC-78
In short: as §1

HCC-827 = tested on: HCC-827
In short: as §1

LCLC-103H = tested on: LCLC-103H
In short: as §1

LK-2 = tested on: LK-2
In short: as §1

LU99A = tested on: LU99A
In short: as §1

LXF-289 = tested on: LXF-289
In short: as §1

NCI-H1563 = tested on: NCI-H1563
In short: as §1

NCI-H1666 = tested on: NCI-H1666
In short: as §1

NCI-H1975 = tested on: NCI-H1975
In short: as §1

NCI-H2126 = tested on: NCI-H2126
In short: as §1

NCI-H23 = tested on: NCI-H23
In short: as §1

NCI-H2405 = tested on: NCI-H2405
In short: as §1

NCI-H322M = tested on: NCI-H322M
In short: as §1

PC-14 = tested on: PC-14
In short: as §1

RERF-LC-KJ = tested on: RERF-LC-KJ
In short: as §1

SK-LU-1 = tested on: SK-LU-1
In short: as §1

SW 1573 = tested on: SW 1573
In short: as §1

With `COc1nc(C)cnc1NS(=O)(=O)c1cccnc1-c1ccc(-c2nnco2)cc1` [Zibotentan] + C[C@]1(O)C[C@@H](c2nc(-c3ccc4ccc(-c5ccccc5)nc4c3)c3c(N)nccn32)C1 [Linsitinib] (partner 1 µM) the relative viability (EKVX; first compound 0.08 µM) was 1.02, the relative viability (EKVX; first compound 0.253 µM) was 1.02 and the relative viability (EKVX; first compound 0.8 µM) was 0.777. For the same compound, the relative viability (EKVX; first compound 2.53 µM) was 1.16, the relative viability (EMC-BAC-2; first compound 0.08 µM) was 0.895 and the relative viability (EMC-BAC-2; first compound 0.253 µM) was 0.785. The relative viability (EMC-BAC-2; first compound 0.8 µM) was 0.823, the relative viability (EMC-BAC-2; first compound 2.53 µM) was 0.905 and the relative viability (EPLC-272H; first compound 0.08 µM) was 1.06. It also gave a relative viability (EPLC-272H; first compound 0.253 µM) of 1.23, a relative viability (EPLC-272H; first compound 0.8 µM) of 1.33 and a relative viability (EPLC-272H; first compound 2.53 µM) of 1.22. It also gave a relative viability (HCC-78; first compound 0.08 µM) of 0.548, a relative viability (HCC-78; first compound 0.253 µM) of 0.503 and a relative viability (HCC-78; first compound 0.8 µM) of 0.411. The relative viability (HCC-78; first compound 2.53 µM) was 0.49, the relative viability (HCC-827; first compound 0.08 µM) was 0.994 and the relative viability (HCC-827; first compound 0.253 µM) was 0.993. The relative viability (HCC-827; first compound 0.8 µM) was 0.98, the relative viability (HCC-827; first compound 2.53 µM) was 0.988 and the relative viability (LCLC-103H; first compound 0.08 µM) was 1.09. For the same compound, the relative viability (LCLC-103H; first compound 0.253 µM) was 0.951, the relative viability (LCLC-103H; first compound 0.8 µM) was 1.06 and the relative viability (LCLC-103H; first compound 2.53 µM) was 1.2. It also gave a relative viability (LK-2; first compound 0.08 µM) of 0.709, a relative viability (LK-2; first compound 0.253 µM) of 0.535 and a relative viability (LK-2; first compound 2.53 µM) of 0.701. The relative viability (LU99A; first compound 0.08 µM) was 0.602, the relative viability (LU99A; first compound 0.253 µM) was 0.528 and the relative viability (LU99A; first compound 0.8 µM) was 0.521. It also gave a relative viability (LU99A; first compound 2.53 µM) of 0.602, a relative viability (LXF-289; first compound 0.08 µM) of 1.01 and a relative viability (LXF-289; first compound 0.253 µM) of 0.998. For the same compound, the relative viability (LXF-289; first compound 0.8 µM) was 0.969, the relative viability (LXF-289; first compound 2.53 µM) was 1.01 and the relative viability (NCI-H1563; first compound 0.08 µM) was 1.17. The relative viability (NCI-H1563; first compound 0.253 µM) was 0.789, the relative viability (NCI-H1563; first compound 0.8 µM) was 1.39 and the relative viability (NCI-H1563; first compound 2.53 µM) was 1.34. For the same compound, the relative viability (NCI-H1666; first compound 0.08 µM) was 0.656, the relative viability (NCI-H1666; first compound 0.253 µM) was 0.709 and the relative viability (NCI-H1666; first compound 0.8 µM) was 0.877. The relative viability (NCI-H1666; first compound 2.53 µM) was 0.825, the relative viability (NCI-H1975; first compound 0.08 µM) was 0.947 and the relative viability (NCI-H1975; first compound 0.253 µM) was 0.895. For the same compound, the relative viability (NCI-H1975; first compound 0.8 µM) was 0.94, the relative viability (NCI-H1975; first compound 2.53 µM) was 0.884 and the relative viability (NCI-H2126; first compound 0.08 µM) was 0.733. It also gave a relative viability (NCI-H2126; first compound 0.253 µM) of 0.625, a relative viability (NCI-H2126; first compound 0.8 µM) of 0.745 and a relative viability (NCI-H2126; first compound 2.53 µM) of 0.716. The relative viability (NCI-H23; first compound 0.08 µM) was 0.614, the relative viability (NCI-H23; first compound 0.253 µM) was 0.545 and the relative viability (NCI-H23; first compound 0.8 µM) was 0.653. The relative viability (NCI-H23; first compound 2.53 µM) was 0.477, the relative viability (NCI-H2405; first compound 0.08 µM) was 1.07 and the relative viability (NCI-H2405; first compound 0.253 µM) was 0.796. The relative viability (NCI-H2405; first compound 0.8 µM) was 0.908, the relative viability (NCI-H2405; first compound 2.53 µM) was 0.959 and the relative viability (NCI-H322M; first compound 0.08 µM) was 0.912. For the same compound, the relative viability (NCI-H322M; first compound 0.253 µM) was 0.898, the relative viability (NCI-H322M; first compound 0.8 µM) was 0.933 and the relative viability (NCI-H322M; first compound 2.53 µM) was 0.843. It also gave a relative viability (PC-14; first compound 0.08 µM) of 1, a relative viability (PC-14; first compound 0.253 µM) of 0.888 and a relative viability (PC-14; first compound 0.8 µM) of 0.937. For the same compound, the relative viability (PC-14; first compound 2.53 µM) was 1.02, the relative viability (RERF-LC-KJ; first compound 0.08 µM) was 0.885 and the relative viability (RERF-LC-KJ; first compound 0.253 µM) was 0.859. It also gave a relative viability (RERF-LC-KJ; first compound 0.8 µM) of 0.803, a relative viability (RERF-LC-KJ; first compound 2.53 µM) of 0.892 and a relative viability (SK-LU-1; first compound 0.08 µM) of 0.833. The relative viability (SK-LU-1; first compound 0.253 µM) was 0.888, the relative viability (SK-LU-1; first compound 0.8 µM) was 1.15 and the relative viability (SK-LU-1; first compound 2.53 µM) was 1.22. The relative viability (SW 1573; first compound 0.08 µM) was 1.04, the relative viability (SW 1573; first compound 0.253 µM) was 0.783 and the relative viability (SW 1573; first compound 0.8 µM) was 0.863. It also gave a relative viability (SW 1573; first compound 2.53 µM) of 0.878.
